From US20200179488A1, “Secretin Receptor Agonists to Treat Diseases or Disorders of Energy Homeostasis” (Technische Universität München, priority 2016, published 2020)
One block for each molecule: values may come before it.

Tests used:
[1] = test system: Protein Kinase A; experiment: SCT-stimulated respiration in primary brown adipocytes after pretreatment with the PKA inhibitor H89; format: cell-based, Mus musculus; details: H89 50 μM pretreatment (FIG. 10F)
Experimental: F: Thermogenic effect of SCT depends on Protein Kinase A activity. Fold increase of basal leak respiration after stimulation with ISO, SCT and vehicle (assay medium) w/o proteinkinase A inhibitor H89 (50 μM). Inhibitor was injected together with olgio prior to addition of stimulators.
(§1) Method: To test whether SCT can activate thermogenesis in brown adipocytes, we measured UCP1-mediated uncoupled respiration in cultured adherent intact primary brown adipocytes, according to a protocol recently established in our lab (Li Y, Fromme T, Schweizer S, Schöttl T, Klingenspor M. EMBO Rep. 2014 October; 15(10):1069-76. doi: 10.15252/embr.201438775; Li Y, Fromme T, Klingenspor M. Meaningful respirometric measurements of UCP1-mediated thermogenesis. Biochimie. 2017 March; 134:56-61. doi: 10.1016/j.biochi.2016.12.005.). The cellular oxygen consumption rate (OCR) of primary adipocytes was determined using an XF96 Extracellular Flux Analyzer (Seahorse Bioscience). […]
All respiration assays were performed in the presence of bovine serum albumin to buffer free fatty acid levels in the respiration medium. Basal respiration was measured in untreated cells. […] UCP1 mediated uncoupled respiration was determined after isoproterenol or secretin stimulation. Maximum respiratory capacity was assessed after FCCP (Sigma-Aldrich) addition (1 μM). […]

[2] = test system: primary brown adipocytes from UCP1 knockout mice; experiment: Microplate respirometry (oxygen consumption rate) in primary brown adipocytes from UCP1 knockout mice; format: cell-based, Mus musculus
Experimental: For culturing primary adipocytes male 129S1/SvImJ mice ([…] or UCP1-KO mice and wildtype littermates) at the age of 5-6 weeks were used for the dissection of inguinal and epidydimal white adipose tissue and interscapular brown adipose tissue depots. The tissue was carefully minced and treated with collagenase for 45 min at 37° C. The homogenate was filtered through a 250 μm nylon mesh and centrifuged at 500 g to collect the stromal vascular fraction (SVF). The SVF cell pellet was rinsed and seeded into XF96 V3-PS cell culture microplate (Seahorse Bioscience). After reaching confluency, induction medium containing 10% fetal bovine serum (FBS), 0.5 mM isobutylmethylxanthine, 125 nM indomethacin, 1 mM dexamethasone, 850 nM insulin and 1 nM T3 was added. After 2 days of induction, cells were maintained in differentiation media (10% FBS, 850 nM insulin and 1 nM T3). Medium was changed every two days. Respiration was measured on day 7 of differentiation. For determination of mRNA levels cells were stimulated at the 7th day of differentiation for 6 hours with secretin (rat, Tocris, Art Nr 1919) or isoproterenol (Sigma-Aldrich, Art Nr. 16504-100MG) and harvested subsequently. Oxygen consumption rate (OCR) was measured at 37° C. using a microplate respirometer (XF96 extracellular flux analyzer, Seahorse Bioscience). At day 7, the differentiation medium was replaced with prewarmed, unbuffered assay medium (DMEM basal medium supplemented with 25 mM glucose, 2 mM sodium pyruvate, 31 mM NaCl, 2 mM GlutaMax and 15 mg/l phenol red, pH 7.4) containing 2% of essentially fatty acid free bovine serum albumin (BSA), and incubated at 37° C. in a room air incubator for 1 h. Basal respiration was measured in untreated cells. […] Maximum respiratory capacity was assessed after FCCP (Sigma-Aldrich) addition (1 μM). […] Oxygen consumption rates were calculated using the Seahorse XF-96 software. […] For induction of OCR by isoproterenol, secretin or FCCP the highest values measured after addition of the respective molecule was used. The “OCR in % of basal OCR” and “OCR in % of FCCP OCR” were calculated as follows: Method: To test whether SCT can activate thermogenesis in brown adipocytes, we measured UCP1-mediated uncoupled respiration in cultured adherent intact primary brown adipocytes, according to a protocol recently established in our lab (Li Y, Fromme T, Schweizer S, Schöttl T, Klingenspor M. EMBO Rep. 2014 October; 15(10):1069-76. doi: 10.15252/embr.201438775; […]. Meaningful respirometric measurements of UCP1-mediated thermogenesis. Biochimie. 2017 March; 134:56-61. doi: 10.1016/j.biochi.2016.12.005.). The cellular oxygen consumption rate (OCR) of primary adipocytes was determined using an XF96 Extracellular Flux Analyzer (Seahorse Bioscience). […]

[3] = test system: UCP1 expression; experiment: UCP1 mRNA expression (qRT-PCR) in primary adipocytes from interscapular brown adipose tissue; format: cell-based, Mus musculus; details: 0.1 μM secretin or 0.5 μM isoproterenol, 6 hours, normalized to TFIIB (FIG. 4B)
Experimental: (§2) For culturing primary adipocytes male 129S1/SvImJ mice ([…] or UCP1-KO mice and wildtype littermates) at the age of 5-6 weeks were used for the dissection of inguinal and epidydimal white adipose tissue and interscapular brown adipose tissue depots. The tissue was carefully minced and treated with collagenase for 45 min at 37° C. The homogenate was filtered through a 250 μm nylon mesh and centrifuged at 500 g to collect the stromal vascular fraction (SVF). The SVF cell pellet was rinsed and seeded into XF96 V3-PS cell culture microplate (Seahorse Bioscience). After reaching confluency, induction medium containing 10% fetal bovine serum (FBS), 0.5 mM isobutylmethylxanthine, 125 nM indomethacin, 1 mM dexamethasone, 850 nM insulin and 1 nM T3 was added. […] Respiration was measured on day 7 of differentiation. […] RNA was eluted in 50 μl nuclease-free water and RNA concentration was determined spectrophotometrically (Infinite 200 PRO NanoQuant, Tecan, Männedorf/Switzerland). Reverse transcription into cDNA was performed with 500 ng RNA in a final volume of 10 μl (Quantitect Reverse Transcription Kit, Quiagen, Hilden/Germany). qRT-PCR was conducted on 384 well plates in a total volume of 12.5 μl comprising 6.25 μl SensiMix SYBR No-ROX (Bioline, London/UK), 250 nM forward and reverse primers, and 1 μl template cDNA (LightCycler 480 System, Roche Diagnostics, Rotkreuz/Switzerland). […]

[4] = test system: UCP1 expression; experiment: UCP1 mRNA expression (qRT-PCR) in primary adipocytes from inguinal white adipose tissue; format: cell-based, Mus musculus; details: 0.1 μM secretin or 0.5 μM isoproterenol, 6 hours, normalized to TFIIB (FIG. 4A)
Experimental: as §2

[5] = test system: primary brown adipocytes; experiment: Microplate respirometry (oxygen consumption rate) in differentiated primary brown adipocytes of wildtype mice; format: cell-based, Mus musculus
Experimental: For culturing primary adipocytes male 129S1/SvImJ mice ([…] or UCP1-KO mice and wildtype littermates) at the age of 5-6 weeks were used for the dissection of inguinal and epidydimal white adipose tissue and interscapular brown adipose tissue depots. The tissue was carefully minced and treated with collagenase for 45 min at 37° C. The homogenate was filtered through a 250 μm nylon mesh and centrifuged at 500 g to collect the stromal vascular fraction (SVF). The SVF cell pellet was rinsed and seeded into XF96 V3-PS cell culture microplate (Seahorse Bioscience). After reaching confluency, induction medium containing 10% fetal bovine serum (FBS), 0.5 mM isobutylmethylxanthine, 125 nM indomethacin, 1 mM dexamethasone, 850 nM insulin and 1 nM T3 was added. After 2 days of induction, cells were maintained in differentiation media (10% FBS, 850 nM insulin and 1 nM T3). Medium was changed every two days. Respiration was measured on day 7 of differentiation. For determination of mRNA levels cells were stimulated at the 7th day of differentiation for 6 hours with secretin (rat, Tocris, Art Nr 1919) or isoproterenol (Sigma-Aldrich, Art Nr. 16504-100MG) and harvested subsequently. Oxygen consumption rate (OCR) was measured at 37° C. using a microplate respirometer (XF96 extracellular flux analyzer, Seahorse Bioscience). At day 7, the differentiation medium was replaced with prewarmed, unbuffered assay medium (DMEM basal medium supplemented with 25 mM glucose, 2 mM sodium pyruvate, 31 mM NaCl, 2 mM GlutaMax and 15 mg/l phenol red, pH 7.4) containing 2% of essentially fatty acid free bovine serum albumin (BSA), and incubated at 37° C. in a room air incubator for 1 h. Basal respiration was measured in untreated cells. Coupled respiration was inhibited by oligomycin treatment (5 μM). […] Maximum respiratory capacity was assessed after FCCP (Sigma-Aldrich) addition (1 μM). Finally, mitochondrial respiration was blocked by antimycin A (Sigma-Aldrich) (5 μM) treatment and the residual OCR was considered to be due to non-mitochondrial reactions. Oxygen consumption rates were calculated using the Seahorse XF-96 software. Data were exported and reconstructed in GraphPad Prism 4.0 software. For each condition the lowest OCR after antimycin A addition was subtracted from all other values. Respiration rates following oligomycin addition were defined as basal OCR. For induction of OCR by isoproterenol, secretin or FCCP the highest values measured after addition of the respective molecule was used. The “OCR in % of basal OCR” and “OCR in % of FCCP OCR” were calculated as follows: Method: To test whether SCT can activate thermogenesis in brown adipocytes, we measured UCP1-mediated uncoupled respiration in cultured adherent intact primary brown adipocytes, according to a protocol recently established in our lab (Li Y, Fromme T, Schweizer S, Schöttl T, Klingenspor M. EMBO Rep. 2014 October; 15(10):1069-76. doi: 10.15252/embr.201438775; […]. Meaningful respirometric measurements of UCP1-mediated thermogenesis. Biochimie. 2017 March; 134:56-61. doi: 10.1016/j.biochi.2016.12.005.). The cellular oxygen consumption rate (OCR) of primary adipocytes was determined using an XF96 Extracellular Flux Analyzer (Seahorse Bioscience). Briefly, primary adipocytes were cultured and differentiated in XF96 microplates. At day 7 of differentiation, cells were washed once with prewarmed, unbuffered assay medium (DMEM basal medium supplemented with 25 mM glucose, 31 mM NaCl, 2 mM GlutaMax and 15 mg/l phenol red, pH 7.4) (basal assay medium) and then the medium was replaced with basal assay medium containing 1-2% essentially fatty acid free bovine serum albumin (BSA), and incubated at 37° C. in a room air incubator for 1 h. The drug injections ports of the sensor cartridges were loaded with the assay reagents at 10× in basal assay medium (no BSA). All respiration assays were performed in the presence of bovine serum albumin to buffer free fatty acid levels in the respiration medium. […]

[6] = test system: adrenergic β-receptors; experiment: SCT- and ISO-stimulated respiration in primary brown adipocytes after propranolol pretreatment; format: cell-based, Mus musculus
Experimental: SCT- and ISO-stimulated respiration after 1 h pretreatment with different concentrations propranolol, a non-selective blocker of adrenergic β-receptors.
as §1, with “Bioscience). Briefly, primary adipocytes were cultured and differentiated in XF96 microplates.” for “Bioscience).”
All respiration assays were performed in the presence of bovine serum albumin to buffer free fatty acid levels in the respiration medium. Basal respiration was measured in untreated cells. […] UCP1 mediated uncoupled respiration was determined after isoproterenol or secretin stimulation. Maximum respiratory capacity was assessed after FCCP (Sigma-Aldrich) addition (1 μM). […] Oxygen consumption rates were automatically calculated by the Seahorse XF-96 software. […]

[7] = molecular target: secretin receptor (mouse, on primary brown adipocytes) (mouse) (UniProt Q5FWI2); experiment: cell-based or functional assay
Chain of UniProt Q5FWI2 (Q5FWI2 29-447): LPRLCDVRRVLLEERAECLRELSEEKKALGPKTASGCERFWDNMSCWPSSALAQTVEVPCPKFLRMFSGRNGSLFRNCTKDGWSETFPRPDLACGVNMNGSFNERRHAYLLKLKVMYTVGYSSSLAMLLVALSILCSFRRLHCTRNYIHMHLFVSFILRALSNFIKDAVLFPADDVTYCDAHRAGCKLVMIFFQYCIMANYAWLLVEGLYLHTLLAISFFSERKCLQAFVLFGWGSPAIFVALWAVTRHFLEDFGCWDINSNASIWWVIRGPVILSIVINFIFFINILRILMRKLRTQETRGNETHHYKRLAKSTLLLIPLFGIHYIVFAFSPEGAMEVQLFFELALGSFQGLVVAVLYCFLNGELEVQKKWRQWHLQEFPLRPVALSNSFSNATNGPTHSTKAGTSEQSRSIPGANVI

Molecule: O=S(=O)(NCCNCC=Cc1ccc(Br)cc1)c1cccc2cnccc12 [H89, N-[2-[[3-(4-Bromophenyl)-2-propenyl]amino]ethyl]-5-isoquinolinesulfonamide]
effect on the thermogenic effect of SCT [1]: completely blocked the thermogenic effect of SCT

Molecule: CC(C)NCC(O)c1ccc(O)c(O)c1 (stereo not shown) [isoproterenol, reference compound]
induction of respiration in cells from UCP1 knockout mice ([2]; 129/S1 background, FIG. 3): lacking
response of respiration in UCP1 knockout brown adipocytes ([2]; SCT 10 nM, ISO 500 nM (FIG. 10B)): did not respond
UCP1 mRNA expression in brown adipocytes versus PBS [3]: induced UCP1 expression to a similar level as secretin
UCP1 mRNA expression in white adipocytes versus PBS [4]: induction of UCP1 expression
increase of OCR above basal OCR ([5]; 0.5 μM, after oligomycin, day 7 of differentiation (FIG. 2B)): about 200%
uncoupled OCR as share of maximal uncoupled OCR induced by FCCP ([5]; 0.5 μM, day 7 of differentiation (FIG. 2C)): about 75%
induction of oxygen consumption in cells from wildtype control mice ([5]; 129/S1 background, FIG. 3): increase in oxygen consumption
stimulation of UCP1-mediated thermogenesis (uncoupled respiration) ([5]; SCT 10 nM, ISO 500 nM, N=5 (FIG. 10A)): activate UCP1-dependent thermogenesis

effect on ISO stimulated respiration ([6]; 1 h pretreatment with propranolol, dose dependent (FIG. 10D)): blocking the effect of ISO
Molecule: CC(C)NCC(O)COc1cccc2ccccc12 (stereo not shown) [propranolol]
effect on SCT stimulated respiration ([6]; 1 h pretreatment with propranolol (1 μM; different concentrations in FIG. 10D)): did not attenuate SCT stimulated respiration

oxygen consumption rate (OCR) in primary brown adipocytes, increase above basal OCR, 0.5 µM secretin (% above basal OCR) [7]: 200
uncoupled OCR in primary brown adipocytes as a share of maximal uncoupled OCR induced by FCCP, 0.5 µM secretin (% of maximal uncoupled OCR) [7]: 75
Molecule: secretin (rat, Tocris, Art Nr 1919) (from UniProt P11384 33-59) (peptide)
